Test results taken from the SangsterLogP compilation.
Values belong to the compound of their own block, whether it stands above or below them. *1 amine or outer side, *2 acyl side, *3 side chain or, on linkers, in order; H or OH if unused. Positions of bridges follow the written chain, without caps; N, C: chain ends. Where a SMILES comes first, the peptide text is derived from it. Residues, ends and D or L forms follow the SMILES beside them. [ ]: non-standard residue; d: D form. The star is where a group is joined. X1 = CC(C)C[C@H](N[*:1])[C@@H](O)C[C@H](C(=O)[*:2])C(C)C; NMeH = CN[C@@H](Cc1c[nH]cn1)C(=O)O; NHCH2(2-pyridyl) = c1ccc(CN*)nc1; Boc = CC(C)(C)OC(=O)*

Tests used:
[1] = not given; remark: listed apart in the source
[2] = not given; remark: listed apart in the source
[3] = not given; remark: listed apart in the source
[4] = method code SF-AS, from DOI: 10.1021/jm0401006, PMID: 15481980; details: pH 7.4
[5] = method code AS, from DOI: 10.1081/jlc-120022394
[6] = not given; remark: listed apart in the source

Compound: CO[C@H]1C=CO[C@@]2(C)Oc3c(C)c(O)c4c(c3C2=O)C(=O)/C(=C/NN2CCN(C3CCCC3)CC2)C(=C4O)NC(=O)/C(C)=C\C=C/[C@H](C)[C@H](O)[C@@H](C)[C@@H](O)[C@H](C)[C@H](OC(C)=O)[C@H]1C
logP: 1.24

Compound: CC[C@H](C)[C@H](NC(=O)[C@@H](C[C@H](O)[C@H](CC(C)C)NC(=O)[C@H](Cc1cnc[nH]1)N(C)C(=O)[C@H](Cc1ccccc1)NC(=O)[C@@H]1CCCN1C(=O)OC(C)(C)C)C(C)C)C(=O)NCc1ccccn1 (Boc-PF[NMeH][X1]I-{NHCH2(2-pyridyl)})
logP [1]: 4.2

Compound: C=CC[C@@H]1/C=C(\C)C[C@H](C)C[C@H](OC)[C@H]2O[C@@](O)(C(=O)C(=O)N3CCCC[C@H]3C(=O)O[C@H](/C(C)=C/[C@@H]3CC[C@@H](O)[C@H](OC)C3)[C@H](C)[C@@H](O)CC1=O)[C@H](C)C[C@@H]2OC
logP [2]: 3.3

Compound: CCOC(=O)C(=Cc1ccc(Cl)cc1)NC=O
logP [5]: 2.65

Compound: CC[C@H](C)[C@@H]1NC(=O)[C@H](Cc2ccc(O)cc2)NC(=O)[C@@H](N)CSSC[C@@H](C(=O)N2CCC[C@H]2C(=O)N[C@@H](CCCN=C(N)N)C(=O)NCC(N)=O)NC(=O)[C@H](CC(N)=O)NC(=O)[C@H](CCC(N)=O)NC1=O (H-CYIQNCPRG-NH2; disulfide 1-6)
logP [6]: -1.62

Next, values leading:

logP [3]: 7.62
Compound: COC(=O)[C@H](Cc1ccccc1)NC(=O)[C@H](Cc1ccccc1)NC(=O)[C@@H](NC(=O)[C@H](CC(C)C)NC(=O)[C@H](CCCCNC(=O)OCc1ccccc1)NC(=O)OC(C)(C)C)C(C)C

logD [4]: 1.67
Compound: CCOC(=O)c1cnc2c(c(C)nn2C)c1Nc1ccc(OC(C)=O)cc1
